Results reported in patent US20240239788A1, “SMALL MOLECULE INHIBITORS OF KRAS G12D MUTANT” (Merck Sharp & Dohme LLC, priority 2021, published 2024).
Structures can show the parent of a compound that is named as a salt. Where two headings read alike, the source gives them in different places.

What was measured:
[1] = biological target: KRAS protein containing G12D mutation (Homo sapiens (Human), UniProt P01116, G12D); experiment: SOS-catalyzed nucleotide exchange assay (GNE), TR-FRET; format: biochemical; conditions: biotinylated KRAS G12D, SOS and GTP, 60-minute incubation
Experimental: Compounds are added to this complex and then after a 60-minute incubation time the mixture is treated with SOS and unlabeled GTP. Small molecule inhibitors stabilize the Bodipy-GDP complex whereas the untreated protein rapidly exchanges Bodipy-GDP for unlabeled GTP resulting in reduced TR-FRET signal.
This solution is referred to as biotinylated KRAS G12D stock solution.

[2] = system: AsPC-1 cells containing homozygous KRAS-G12D activating mutation; experiment: Cellular phospho-ERK assay with 10% FBS (Examples 107a-256); format: cell-based
Experimental: 5% CO2 for 2 hours. […] Assay plates were read on a EnVision Multimode Plate Reader (PerkinElmer) and the ratio of p-Erk vs total Erk in each well was used as the final readout.

[3] = read-out: IC50 (nM) pERK (cell with FBS 10%), AsPC-1 cells, 10% fetal bovine serum, 2 hours, ratio of p-Erk vs total Erk
[4] = Homo sapiens, ASPC1, 2 h, read-out: IC50 (nM) pERK (cell with FBS 10%), AsPC-1 cells, 10% fetal bovine serum, 2 hours, ratio of p-Erk vs total Erk

Sequence of KRAS protein containing G12D mutation (P01116 other isoform, or with tags, fused parts or gaps G12D (already in the parent)): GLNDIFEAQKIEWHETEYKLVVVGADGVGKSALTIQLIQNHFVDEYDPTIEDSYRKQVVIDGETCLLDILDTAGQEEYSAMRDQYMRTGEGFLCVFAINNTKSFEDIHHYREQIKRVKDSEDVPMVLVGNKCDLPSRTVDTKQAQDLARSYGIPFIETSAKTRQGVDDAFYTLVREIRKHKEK

Cc1cc2[nH]nc(C)c2c(-c2c(F)cc3c(N4CC5CCC(C4)N5)nc(OC[C@@]45CCCN4C[C@H](F)C5)nc3c2F)c1C(F)(F)F (single isomer, unassigned) [Ex. 128a]
IC50 [1]: 1.28 nM | IC50 [2, 3]: 43.4 nM

Cc1cc2[nH]nc(C)c2c(-c2c(F)cc3c(N4CC5CCC(C4)N5)nc(OC[C@@]45CCCN4C[C@H](F)C5)nc3c2F)c1C(F)(F)F (single isomer, unassigned) [Ex. 128b]
IC50 [1]: 232 nM | IC50 [2, 3]: 2850 nM

C[C@]12CC[C@H](CN(c3nc(OC[C@@]45CCCN4C[C@H](F)C5)nc4c(F)c(-c5cc(O)cc(Cl)c5Cl)c(F)cc34)C1)N2 (single isomer, unassigned) [Ex. 129a, HCl]
IC50 [1]: 17.7 nM | IC50 [2, 4]: 2810 nM

C[C@]12CC[C@H](CN(c3nc(OC[C@@]45CCCN4C[C@H](F)C5)nc4c(F)c(-c5cc(O)cc(Cl)c5Cl)c(F)cc34)C1)N2 (single isomer, unassigned) [Ex. 129b, HCl]
IC50 [1]: 14.1 nM | IC50 ([2]; read-out: IC50 (nM) pERK (cell with FBS 10%), AsPC-1 cells, 10% fetal bovine serum, 2 hours, ratio of p-Erk vs total Erk, HCl): 3010 nM

Nc1nc2c(-c3c(Cl)cc4c(N5CC6CCC(C5)N6)nc(OC[C@@]56CCCN5C[C@H](F)C6)nc4c3F)c(F)cc(F)c2o1 (single isomer, unassigned) [Ex. 133a]
IC50 [1]: 61.4 nM | IC50 [2, 3]: 3470 nM

Nc1nc2c(-c3c(Cl)cc4c(N5CC6CCC(C5)N6)nc(OC[C@@]56CCCN5C[C@H](F)C6)nc4c3F)c(F)cc(F)c2o1 (single isomer, unassigned) [Ex. 133b]
IC50 [1]: 1.16 nM | IC50 [2, 3]: 410 nM

C#Cc1c(F)ccc2cccc(-c3c(F)cc4c(N5CC6CCC(C5)N6)nc(OC[C@@]56CCCN5[C@H](CO)CC6)nc4c3F)c12 (single isomer, unassigned) [Ex. 142]
IC50 [1]: 1.57 nM | IC50 [2, 4]: 384 nM

C#Cc1cccc2cc(O)c(Cl)c(-c3c(F)cc4c(N5CC6CC[C@@](C)(C5)N6)nc(OC[C@@]56CCCN5C[C@H](F)C6)nc4c3F)c12 (single isomer, unassigned) [Ex. 143a]
IC50 [1]: 0.86 nM | IC50 [2, 3]: 53.5 nM

C#Cc1cccc2cc(O)c(Cl)c(-c3c(F)cc4c(N5CC6CC[C@@](C)(C5)N6)nc(OC[C@@]56CCCN5C[C@H](F)C6)nc4c3F)c12 (single isomer, unassigned) [Ex. 143b]
IC50 [1]: 74.5 nM | IC50 [2, 3]: 2500 nM

N#Cc1c(N)sc2c(F)ccc(-c3c(F)cc4c(N5C[C@H]6CC[C@@H](C5)N6)nc(OC[C@@]56CCCN5C[C@H](F)C6)nc4c3F)c12 (single isomer, unassigned) [Ex. 144a]
IC50 [1]: 2.03 nM | IC50 [2, 3]: 83.9 nM

N#Cc1c(N)sc2c(F)ccc(-c3c(F)cc4c(N5C[C@H]6CC[C@@H](C5)N6)nc(OC[C@@]56CCCN5C[C@H](F)C6)nc4c3F)c12 (single isomer, unassigned) [Ex. 144b]
IC50 [1]: 20 nM | IC50 [2, 3]: 392 nM

Nc1cc(F)c(C(F)(F)F)c(-c2c(F)cc3c(N4CC5CCC(C4)N5)nc(OC[C@@]45CCCN4C[C@H](F)C5)nc3c2F)c1F (single isomer, unassigned) [Ex. 145a]
IC50 [1]: 1270 nM | IC50 [2, 3]: 19400 nM

Nc1cc(F)c(C(F)(F)F)c(-c2c(F)cc3c(N4CC5CCC(C4)N5)nc(OC[C@@]45CCCN4C[C@H](F)C5)nc3c2F)c1F (single isomer, unassigned) [Ex. 145b]
IC50 [1]: 14.1 nM | IC50 [2, 3]: 358 nM

Cc1cc(N)c(F)c(-c2c(F)cc3c(N4CC5CCC(C4)N5)nc(OC[C@@]45CCCN4C[C@H](F)C5)nc3c2F)c1C(F)(F)F (single isomer, unassigned) [Ex. 146a]
IC50 [1]: 1.56 nM | IC50 [2, 4]: 185 nM

C#Cc1cccc2scc(-c3c(F)cc4c(N5CC6CC[C@@](C)(C5)N6)nc(OCC5(CN6CCOCC6)CC5)nc4c3F)c12 (single isomer, unassigned) [Ex. 147a]
IC50 [1]: 400 nM | IC50 [2, 4]: 16600 nM

C#Cc1cccc2scc(-c3c(F)cc4c(N5CC6CC[C@@](C)(C5)N6)nc(OCC5(CN6CCOCC6)CC5)nc4c3F)c12 (single isomer, unassigned) [Ex. 147b]
IC50 [1]: 429 nM | IC50 [2, 3]: 10200 nM

C#Cc1cccc2cc(N)nc(-c3c(F)cc4c(N5CC6CCC(C5)N6)nc(OC[C@@]56CCCN5C[C@H](F)C6)nc4c3F)c12 (single isomer, unassigned) [Ex. 148a]
IC50 [1]: 13.6 nM | IC50 [2, 3]: 235 nM

C#Cc1cccc2cc(N)nc(-c3c(F)cc4c(N5CC6CCC(C5)N6)nc(OC[C@@]56CCCN5C[C@H](F)C6)nc4c3F)c12 (single isomer, unassigned) [Ex. 148b]
IC50 [1]: 751 nM | IC50 [2, 3]: 8550 nM

C#Cc1c(F)ccc2cccc(-c3c(F)cc4c(N5C[C@H]6CC[C@@](C)(C5)N6)nc(OC[C@@]56CCCN5[C@H](CF)CC6)nc4c3F)c12 (single isomer, unassigned) [Ex. 149]
IC50 [1]: 103 nM | IC50 [2, 4]: 4490 nM

Cc1nc(N)c(F)c(-c2c(F)cc3c(N4CC5CCC(C4)N5)nc(OC[C@@]45CCCN4C[C@H](F)C5)nc3c2F)c1C(F)(F)F (single isomer, unassigned) [Ex. 151a]
IC50 [1]: 1930 nM | IC50 [2, 3]: 3950 nM

Cc1nc(N)c(F)c(-c2c(F)cc3c(N4CC5CCC(C4)N5)nc(OC[C@@]45CCCN4C[C@H](F)C5)nc3c2F)c1C(F)(F)F (single isomer, unassigned) [Ex. 151b]
IC50 [1]: 21.6 nM | IC50 [2, 3]: 278 nM

Nc1cc(Cl)c(C(F)(F)F)c(-c2c(Cl)cc3c(N4CC5CCC(C4)N5)nc(OC[C@@]45CCCN4C[C@H](F)C5)nc3c2F)n1 (single isomer, unassigned) [Ex. 154a]
IC50 [1]: 1.1 nM | IC50 [2, 4]: 52.1 nM

Nc1cc(-c2c(Cl)cc3c(N4CC5CCC(C4)N5)nc(OC[C@@]45CCCN4C[C@H](F)C5)nc3c2F)c(C(F)(F)F)c(Cl)n1 (single isomer, unassigned) [Ex. 155b]
IC50 [1]: 2.33 nM | IC50 [2, 4]: 144 nM

Oc1cc(-c2c(F)cc3c(N4CC5CCC(C4)N5)nc(OC[C@@]45CCCN4C[C@H](F)C5)nc3c2F)c2c(Cl)cccc2c1 (single isomer, unassigned) [Ex. 160a]
IC50 [1]: 3.3 nM | IC50 [2, 3]: 882 nM

Oc1cc(-c2c(F)cc3c(N4CC5CCC(C4)N5)nc(OC[C@@]45CCCN4C[C@H](F)C5)nc3c2F)c2c(Cl)cccc2c1 (single isomer, unassigned) [Ex. 160b]
IC50 [1]: 367 nM | IC50 [2, 3]: 12500 nM

CCC(=O)Oc1cc(-c2c(F)cc3c(N4CC5CC[C@@](C)(C4)N5)nc(OC[C@@]45CCCN4C[C@H](F)C5)nc3c2F)c2c(Cl)cccc2c1 (single isomer, unassigned) [Ex. 162a]
IC50 [1]: 23.1 nM | IC50 [2, 3]: 659 nM

CCC(=O)Oc1cc(-c2c(F)cc3c(N4CC5CC[C@@](C)(C4)N5)nc(OC[C@@]45CCCN4C[C@H](F)C5)nc3c2F)c2c(Cl)cccc2c1 (single isomer, unassigned) [Ex. 162b]
IC50 [1]: 495 nM | IC50 [2, 3]: 2390 nM

C[C@]12CC[C@H](CN(c3nc(OC[C@@]45CCCN4C[C@H](F)C5)nc4c(F)c(-c5cc(N)c(F)c6cccc(Cl)c56)c(F)cc34)C1)N2 (single isomer, unassigned) [Ex. 163a]
IC50 [1]: 47.5 nM | IC50 [2, 3]: 2270 nM

C[C@]12CC[C@H](CN(c3nc(OC[C@@]45CCCN4C[C@H](F)C5)nc4c(F)c(-c5cc(N)c(F)c6cccc(Cl)c56)c(F)cc34)C1)N2 (single isomer, unassigned) [Ex. 163b]
IC50 [1]: 4740 nM | IC50 [2, 3]: 35600 nM

Cc1c(C(F)(F)F)c(-c2c(F)cc3c(N4CC5CCC(C4)N5)nc(OC[C@@]45CCCN4C[C@H](F)C5)nc3c2F)c2cn[nH]c2c1F (single isomer, unassigned) [Ex. 166a]
IC50 [1]: 944 nM | IC50 [2, 3]: 30000 nM

Cc1c(C(F)(F)F)c(-c2c(F)cc3c(N4CC5CCC(C4)N5)nc(OC[C@@]45CCCN4C[C@H](F)C5)nc3c2F)c2cn[nH]c2c1F (single isomer, unassigned) [Ex. 166b]
IC50 [1]: 4.4 nM | IC50 [2, 3]: 152 nM

C[C@]12CC[C@H](CN(c3nc(OC[C@@]45CCCN4C[C@H](F)C5)nc4c(F)c(-c5cncc6cccc(Cl)c56)c(F)cc34)C1)N2 (single isomer, unassigned) [Ex. 167]
IC50 [1]: 414 nM | IC50 [2, 4]: 8440 nM

C#Cc1cccc2cc(O)cc(-c3c(F)cc4c(N5CC6CC[C@@](C)(C5)N6)nc(OCC5(CN6CC[C@@H](F)C6)CC5)nc4c3F)c12 (single isomer, unassigned) [Ex. 169]
IC50 [1]: 0.7 nM | IC50 ([2]; Homo sapiens, ASPC1, 2 h, read-out: IC50 (nM) pERK (cell with FBS 10%)): 73 nM

C[C@]12CC[C@H](CN(c3nc(OC[C@@]45CCCN4C[C@H](F)C5)nc4c(F)c(-c5c(F)cc(F)c6oc(N)nc56)c(Cl)cc34)C1)N2 (single isomer, unassigned) [Ex. 170a]
IC50 [1]: 4.72 nM | IC50 [2, 3]: 1380 nM

C[C@]12CC[C@H](CN(c3nc(OC[C@@]45CCCN4C[C@H](F)C5)nc4c(F)c(-c5c(F)cc(F)c6oc(N)nc56)c(Cl)cc34)C1)N2 (single isomer, unassigned) [Ex. 170b]
IC50 [1]: 874 nM | IC50 [2, 3]: 14900 nM

C#Cc1cccc2cc(O)cc(-c3c(F)cc4c(N5C[C@H]6CC[C@@](C)(C5)N6)nc(OC)nc4c3F)c12 (single isomer, unassigned) [Ex. 171a, TFA]
IC50 [1]: 1260 nM | IC50 [2, 4]: 7720 nM

C[C@]12CCC(CN(c3nc(OCC45CCCN4CC(C(F)F)C5)nc4c(F)c(-c5cc(O)cc6cccc(Cl)c56)c(F)cc34)C1)N2 (single isomer, unassigned) [Ex. 173-1a]
IC50 [1]: 8.43 nM | IC50 [2, 3]: 1570 nM

C[C@]12CCC(CN(c3nc(OCC45CCCN4CC(C(F)F)C5)nc4c(F)c(-c5cc(O)cc6cccc(Cl)c56)c(F)cc34)C1)N2 (single isomer, unassigned) [Ex. 173-1b]
IC50 [1]: 22.1 nM | IC50 [2, 3]: 2890 nM
